For one experiment, the system named is NCI-N87 cell. Nature of the experiment: Cell proliferation inhibitory activity, Cell-Titer-Glo, NCI-N87. Type of experiment: cell-based, human. To be noted: 3 days incubation. From the text: (§1) Experiment object: to detect the inhibitory activity of the tested compound on cell proliferation.
(§2) Experimental principle: the luciferase in the Cell-Titer-Glo reagent uses luciferin, oxygen and ATP as reaction substrates to produce oxyluciferin and release energy in the form of light. Since the luciferase reaction requires ATP, the total amount of light produced by the reaction is proportional to the total amount of ATP that reflects cell viability.
(§3) Experimental Materials: • cell lines: NCI-N87 cell line (ATCC-CRL-5822); BT-474 cell line (ATCC-HTB-20) • Cell culture medium: RPMI 1640 medium (Invitrogen #22400-105; 10% serum Invitrogen #10090148; L-glutamine 1×, Gibco #25030-081; double antibody Hyclone #SV30010) • CellTiter-Glo® luminescence cell viability detection kit (Promega #G7573) • 384-well cell culture plate (Greiner #781090) • Compound plate (LABCYTE #LP-0200) • CO2 incubator (Thermo #371) • Vi-cell cell counter (Beckman Coulter) • Pipette (Eppendorf) • Pipette (Greiner) • Pipetting gun (Eppendorf) • Multifunctional microplate reader (Envision Reader) • ECHO Liquid-handling workstation (Labcyte-ECHO555)
(§4) The cells were inoculated in a 384-well plate with a density of 1000 cells per well and 25 μL per well. The edge wells were not inoculated with cells, and was supplemented with 25 μL of phosphate buffer.
(§5) The compound was added to the plate with 9 μL per well.
(§6) (2) The compound was diluted with ECHO liquid-handling workstation, and each well of the cell plate was added with 125 nL of compound. Each well of the cell wells of columns 2 and 23 was added with 125 nL of DMSO, and each well of the Media wells of columns 1 and 24 was added with 125 nL of DMSO.
(§7) (3) Each well of the cell plate was supplemented with 25 μL of culture medium, and the final volume in each well of the cell plate was 50 μL. The concentration of the compound was 10 μM, which was subjected to 3 fold dilution to obtain 10 concentrations. Each concentration was duplicated in left and right wells, and the final DMSO concentration was 0.25%.
(§8) 2.3 After adding the compound, it was centrifuged at 1000 rpm for 1 min. The cell plate was placed in a 37° C., 5% CO2 incubator for 3 days.
(§9) The cell plate was taken from the incubator and equilibrated at room temperature for 30 min. 25 μL of Cell-Titer-Glo reagent was added to each well, shaken for 1 min to make it thoroughly mixed, and centrifuged at 1000 rpm for 1 min. After 10 min, the plate was read on PerkinElmer Envision, and the […] reading time was set to 0.2 seconds.

In another experiment the target is HER2 (ErbB2) (Homo sapiens (Human), UniProt P04626). Nature of the experiment: In vitro enzyme activity, HER2 (ErbB2), [γ-33P]ATP filter assay. Type of experiment: biochemical. The procedure: (§10) The object of this test is to detect the in vitro inhibitory activity of the compound against HER1 (ErbB1), HER2 (ErbB2) and HER4 (ErbB4). The enzymes used in this test were human ErbB1, ErbB2 and ErbB4. Eurofins Pharma Discovery Service provided the activity detection method, and the results of the inhibitory activity of the tested compound against HER1, HER2 and HER4 were shown in Table 1.
HER2 (ErbB2), sequence (P04626 23-1255): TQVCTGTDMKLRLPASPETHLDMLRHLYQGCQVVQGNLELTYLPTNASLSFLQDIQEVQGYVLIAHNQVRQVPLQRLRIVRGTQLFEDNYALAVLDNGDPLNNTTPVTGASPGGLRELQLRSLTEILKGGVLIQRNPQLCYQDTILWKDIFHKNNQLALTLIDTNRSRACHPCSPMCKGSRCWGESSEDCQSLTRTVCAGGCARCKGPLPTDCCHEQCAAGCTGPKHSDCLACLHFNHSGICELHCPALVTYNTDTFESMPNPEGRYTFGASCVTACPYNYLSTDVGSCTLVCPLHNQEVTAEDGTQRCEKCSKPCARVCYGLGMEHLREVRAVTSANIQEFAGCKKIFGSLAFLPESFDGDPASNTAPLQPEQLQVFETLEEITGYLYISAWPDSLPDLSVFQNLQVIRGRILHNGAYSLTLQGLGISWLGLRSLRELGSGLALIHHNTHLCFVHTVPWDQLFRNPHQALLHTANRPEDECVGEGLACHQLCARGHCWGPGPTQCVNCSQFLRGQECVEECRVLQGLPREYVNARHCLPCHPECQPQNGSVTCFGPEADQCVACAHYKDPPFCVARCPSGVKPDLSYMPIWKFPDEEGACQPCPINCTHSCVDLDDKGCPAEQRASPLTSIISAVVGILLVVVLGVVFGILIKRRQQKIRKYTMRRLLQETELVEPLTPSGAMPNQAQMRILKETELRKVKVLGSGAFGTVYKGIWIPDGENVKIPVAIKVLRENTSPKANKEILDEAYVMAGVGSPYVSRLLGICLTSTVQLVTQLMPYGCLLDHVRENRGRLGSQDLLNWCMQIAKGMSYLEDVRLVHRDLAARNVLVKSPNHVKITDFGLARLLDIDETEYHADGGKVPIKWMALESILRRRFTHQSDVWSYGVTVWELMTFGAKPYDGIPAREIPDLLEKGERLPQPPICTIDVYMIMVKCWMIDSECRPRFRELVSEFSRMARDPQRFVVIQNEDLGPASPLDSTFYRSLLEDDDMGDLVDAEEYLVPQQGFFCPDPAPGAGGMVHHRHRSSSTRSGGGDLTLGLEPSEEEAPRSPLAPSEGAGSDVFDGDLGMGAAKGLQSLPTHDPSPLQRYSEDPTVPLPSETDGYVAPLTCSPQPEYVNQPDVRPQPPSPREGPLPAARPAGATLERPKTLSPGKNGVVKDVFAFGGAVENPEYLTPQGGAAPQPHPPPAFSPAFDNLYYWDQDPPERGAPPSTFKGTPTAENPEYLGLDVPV
(§11) Experimental Steps and Methods (96-Well Plate):
(§12) 5-fold diluted tested compound buffer (5 μL), peptide substrate poly(Glu, Tyr) (4:1) (2.5 μL), ErbB (4-20 ng, 2.5 μL), MnCl2 (50 mM, 1.25 μL), dH2O (3.75 μL) and [γ-^33P]ATP (10 μL) were added, and incubated at 30° C. for 10 min. 3% phosphoric acid was added to terminate the reaction, and 10 μL of the specimen was transferred to Filtermate A. The filter was washed with 75 mM phosphoric acid for three times and methanol once, and transferred to a sealed plastic bag, and a scintillation fluid mixture (4 mL) was added, The intensity of the emitted photons was detected on the scintillation luminescence counter. The photon intensity of the enzyme sample was compared with the photon intensity of the internal control sample, and the level of photon intensity reflected the strength of the tyrosine kinase activity.

The target in another experiment is HER1 (ErbB1) (Homo sapiens (Human), UniProt P00533). Nature of the experiment: In vitro enzyme activity, HER1 (ErbB1), [γ-33P]ATP filter assay. Type of experiment: biochemical. The procedure: The object of this test is to detect the in vitro inhibitory activity of the compound against HER1 (ErbB1), HER2 (ErbB2) and HER4 (ErbB4). The enzymes used in this test were human ErbB1, ErbB2 and ErbB4.
HER1 (ErbB1), sequence (P00533 25-1210): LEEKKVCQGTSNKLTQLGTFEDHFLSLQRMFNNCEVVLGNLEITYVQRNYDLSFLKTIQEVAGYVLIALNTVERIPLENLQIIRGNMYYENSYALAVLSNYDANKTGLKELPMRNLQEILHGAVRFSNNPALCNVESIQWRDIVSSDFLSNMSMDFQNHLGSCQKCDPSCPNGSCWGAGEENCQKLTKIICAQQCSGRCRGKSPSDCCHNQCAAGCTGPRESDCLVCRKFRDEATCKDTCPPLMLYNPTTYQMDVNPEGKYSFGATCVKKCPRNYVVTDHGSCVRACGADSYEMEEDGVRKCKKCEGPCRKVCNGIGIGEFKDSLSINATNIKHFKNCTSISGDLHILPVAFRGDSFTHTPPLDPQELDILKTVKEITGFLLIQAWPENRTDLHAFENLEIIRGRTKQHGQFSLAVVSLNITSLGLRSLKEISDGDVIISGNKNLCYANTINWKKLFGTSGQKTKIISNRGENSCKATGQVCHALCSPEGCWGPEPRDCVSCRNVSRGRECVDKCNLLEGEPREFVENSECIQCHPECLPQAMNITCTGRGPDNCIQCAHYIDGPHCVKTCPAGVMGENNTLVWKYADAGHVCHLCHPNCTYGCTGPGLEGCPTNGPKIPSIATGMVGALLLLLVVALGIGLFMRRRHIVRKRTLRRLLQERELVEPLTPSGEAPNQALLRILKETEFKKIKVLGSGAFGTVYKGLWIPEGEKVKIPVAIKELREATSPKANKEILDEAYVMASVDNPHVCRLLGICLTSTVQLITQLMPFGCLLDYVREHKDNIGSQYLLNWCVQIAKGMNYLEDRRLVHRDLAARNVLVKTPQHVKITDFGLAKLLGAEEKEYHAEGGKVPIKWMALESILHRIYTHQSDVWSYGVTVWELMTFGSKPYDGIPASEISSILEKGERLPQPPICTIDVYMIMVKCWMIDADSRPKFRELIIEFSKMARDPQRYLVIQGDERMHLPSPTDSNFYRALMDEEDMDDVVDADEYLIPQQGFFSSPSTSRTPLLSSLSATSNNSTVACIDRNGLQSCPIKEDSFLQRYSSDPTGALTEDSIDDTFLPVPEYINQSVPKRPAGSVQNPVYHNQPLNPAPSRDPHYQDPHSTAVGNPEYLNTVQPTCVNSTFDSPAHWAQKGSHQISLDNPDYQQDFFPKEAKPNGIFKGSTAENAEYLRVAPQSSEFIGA
as §11, §12

For the next experiment, the target named is HER4 (ErbB4) (Homo sapiens (Human), UniProt Q15303). Kind of experiment: In vitro enzyme activity, HER4 (ErbB4), [γ-33P]ATP filter assay. Type of experiment: biochemical. The procedure: as §10, §11, §12
HER4 (ErbB4), sequence (Q15303 26-1308): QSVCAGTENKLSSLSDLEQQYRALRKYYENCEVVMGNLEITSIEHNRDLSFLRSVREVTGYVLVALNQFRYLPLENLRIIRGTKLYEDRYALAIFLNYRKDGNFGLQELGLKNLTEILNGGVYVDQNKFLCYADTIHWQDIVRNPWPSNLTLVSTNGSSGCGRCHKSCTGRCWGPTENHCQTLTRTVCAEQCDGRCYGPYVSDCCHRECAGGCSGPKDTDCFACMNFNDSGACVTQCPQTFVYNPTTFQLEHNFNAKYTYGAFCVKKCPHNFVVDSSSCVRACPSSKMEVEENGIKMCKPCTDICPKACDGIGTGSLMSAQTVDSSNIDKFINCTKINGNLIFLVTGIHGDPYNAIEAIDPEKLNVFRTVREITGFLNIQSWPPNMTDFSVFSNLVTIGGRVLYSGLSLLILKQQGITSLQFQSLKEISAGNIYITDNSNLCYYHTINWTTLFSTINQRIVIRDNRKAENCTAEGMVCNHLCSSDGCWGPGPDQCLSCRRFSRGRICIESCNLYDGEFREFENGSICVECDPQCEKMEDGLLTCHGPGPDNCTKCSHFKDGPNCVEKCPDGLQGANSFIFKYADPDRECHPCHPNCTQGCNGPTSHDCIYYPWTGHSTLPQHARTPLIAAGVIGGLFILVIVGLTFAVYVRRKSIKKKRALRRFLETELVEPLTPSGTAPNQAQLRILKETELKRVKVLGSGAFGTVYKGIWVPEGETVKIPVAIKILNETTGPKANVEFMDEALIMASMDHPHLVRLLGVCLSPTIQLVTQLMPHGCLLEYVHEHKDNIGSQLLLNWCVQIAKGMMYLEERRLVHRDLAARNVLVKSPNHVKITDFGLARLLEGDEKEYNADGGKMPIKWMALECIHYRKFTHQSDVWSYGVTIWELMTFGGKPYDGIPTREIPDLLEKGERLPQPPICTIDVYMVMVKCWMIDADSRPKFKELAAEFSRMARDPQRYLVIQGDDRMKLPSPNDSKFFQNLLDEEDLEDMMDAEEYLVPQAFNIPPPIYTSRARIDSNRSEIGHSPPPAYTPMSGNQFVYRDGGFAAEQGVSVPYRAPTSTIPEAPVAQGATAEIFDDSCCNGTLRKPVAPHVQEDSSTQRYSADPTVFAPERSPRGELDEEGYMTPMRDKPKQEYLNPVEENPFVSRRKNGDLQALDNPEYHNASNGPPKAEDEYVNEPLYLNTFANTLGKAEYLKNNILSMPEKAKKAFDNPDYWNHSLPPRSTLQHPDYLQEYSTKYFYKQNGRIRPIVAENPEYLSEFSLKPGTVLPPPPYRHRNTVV
In a further experiment the test system is BT-474 cell. Nature of the experiment: Cell proliferation inhibitory activity, Cell-Titer-Glo, BT-474. Type of experiment: cell-based. As to conditions: Homo sapiens, BT-474, 72 h; 3 days incubation.
Source text: as §1, §2, §3, §4, §5, §6, §7, §8, §9

For experiment [1], the system named is human breast cancer BT-474 cell subcutaneous xenograft tumor. Kind of experiment: In vivo efficacy, BT-474 subcutaneous xenograft tumor model. On the set-up: species or system BALB/c nude mice. To be noted: BT-474 xenograft, 100 mg/kg. On the procedure:
Experiment object: to study the in vivo efficacy of the tested compound in human breast cancer BT-474 cell BALB/c nude mouse subcutaneous xenograft tumor model.
Experimental animals: female BALB/c nude mice, 6 to 8 weeks old, weight: 18 to 22 grams; Supplier Beijing Weitonglihua Laboratory Animal Technology Co., Ltd.
Human breast cancer BT474 cells were cultured in a monolayer in vitro. The culture conditions were: ATCC Hybri-Care Medium with 1.5 g/L sodium bicarbonate, 10% fetal bovine serum, 100 U/mL penicillin and 100 μg/mL streptomycin, and 37° C., 5% CO2 incubator. Conventional digestion treatment with pancreatin-EDTA for passage was carried out twice a week. When the cell saturation was 80% to 90%, and the number reached the requirement, the cells were collected, counted and inoculated.
0.2 mL (1×10^7 cells) of BT474 cells (with matrigel in a volume ratio of 1:1) were subcutaneously inoculated on the right back of each mouse. The grouping and administration were started when the average tumor volume reached about 168 mm^3. (Estrogen tablets were inoculated three days before cell inoculation).
7.3 the Preparation of the Tested Samples, Tumor Measurement, Experimental Index and Statistical Analysis were the Same as in Experimental Example 6.

pIC50: −log10 of the molar value. “And” between values parts separate entries of the source, which are not always exact repeats. Identical values can stand only once.

Data on 18 molecules can be found in patent publication US12030897B2, “Pyrrolo[2,1-f][1,2,4]triazine derivatives serving as selective HER2 inhibitors and application thereof” (MEDSHINE DISCOVERY INC., priority 2018, dated 2024).

As usually defined, the pIC50 is the negative decadic logarithm of the IC50, by convention in mol/L. A higher pIC50 goes with a small IC50. For `Cc1cc(Nc2ncnn3ccc(CC4CCC(N)CC4)c23)ccc1Oc1ccn2ncnc2c1` (stereo not shown) [Example 29], the pIC50 with NCI-N87 cell (Homo sapiens, NCI-N87, 72 h) was 7.57.

In the case of `Cc1c(Oc2ccn3ncnc3c2)ccc(Nc2ncnn3ccc(CN4CCC(N)CC4)c23)c1F` [Example 31], the negative-log IC50 (pIC50) at HER2 (ErbB2) was 8.52; at HER1 (ErbB1) it was 6.18; with NCI-N87 cell (Homo sapiens, NCI-N87, 72 h), 7.51; against HER4 (ErbB4), < 6.00.

In the case of `Cc1cc(Nc2ncnn3ccc(CN4CC[C@H](N)[C@@H](F)C4)c23)ccc1Oc1ccn2ncnc2c1` [Example 21], the pIC50 against HER2 (ErbB2) is 8.40; at HER1 (ErbB1), 6.04; with NCI-N87 cell it was 7.72; against HER4 (ErbB4), < 6.00.

`Cc1cc(Nc2ncnn3ccc(CN4CCC(C)(N)CC4)c23)ccc1Oc1ccn2ncnc2c1` [Example 9]: the negative-log IC50 (pIC50) against HER2 (ErbB2) was 7.96; against HER1 (ErbB1) it was 6.49; in the experiment on NCI-N87 cell (Homo sapiens, NCI-N87, 72 h), 8.10; against HER4 (ErbB4), 6.70.

As to `Cc1cc(Nc2ncnn3ccc(CN4CCC(O)CC4)c23)ccc1Oc1ccn2ncnc2c1` [Example 16], the pIC50 against HER2 (ErbB2) was 8.15; on HER1 (ErbB1), 6.06; in the experiment with NCI-N87 cell (Homo sapiens, NCI-N87, 72 h), 7.42; against HER4 (ErbB4), 6.27.

With `Cc1cc(Nc2ncnn3ccc(CN4CC[C@H](N)[C@@H](F)C4)c23)ccc1Oc1ccn2ncnc2c1` [Example 23], the pIC50 against HER2 (ErbB2) was 8.70; against HER1 (ErbB1) it was 7.21; in the experiment with NCI-N87 cell, 8.52; against HER4 (ErbB4), 7.39.

`NC1CCN(Cc2ccn3ncnc(Nc4ccc(Oc5ccn6ncnc6c5)c(C(F)(F)F)c4)c23)CC1` [Example 30]: the negative-log IC50 (pIC50) at HER2 (ErbB2) is 7.85; at HER1 (ErbB1) it was 6.18; at HER4 (ErbB4), < 6.00.

Turning to `COCCNC1CCN(Cc2ccn3ncnc(Nc4ccc(Oc5ccn6ncnc6c5)c(C)c4)c23)CC1` [Example 18], the pIC50 at HER2 (ErbB2) is 8.40; at HER1 (ErbB1) it was 6.29; in the experiment with NCI-N87 cell (Homo sapiens, NCI-N87, 72 h) it was 7.19; at HER4 (ErbB4) it was < 6.00.

With `COCC1(N)CCN(Cc2ccn3ncnc(Nc4ccc(Oc5ccn6ncnc6c5)c(C)c4)c23)CC1` [Example 20], the pIC50 at HER2 (ErbB2) was 8.15; at HER1 (ErbB1), 6.78; in the experiment on NCI-N87 cell (Homo sapiens, NCI-N87, 72 h), 8.05; on HER4 (ErbB4), 6.64; in the experiment on BT-474 cell it was 7.06.

Regarding `Cc1cc(Nc2ncnn3ccc(CN4[C@@H]5CC[C@H]4C[C@H](N)C5)c23)ccc1Oc1ccn2ncnc2c1` [Example 8], the pIC50 is 8.00 against HER2 (ErbB2); 6.41 against HER1 (ErbB1); 7.70 with NCI-N87 cell (Homo sapiens, NCI-N87, 72 h); 6.74 against HER4 (ErbB4).

In the case of `Cc1cc(Nc2ncnn3ccc(CN4C[C@H]5CC[C@@H](C4)[C@H]5N)c23)ccc1Oc1ccn2ncnc2c1` [Example 7], the pIC50 is 8.00 on HER2 (ErbB2); 7.57 in the experiment with NCI-N87 cell (Homo sapiens, NCI-N87, 72 h); < 6.00 against HER4 (ErbB4).

Molecule `Cc1cc(Nc2ncnn3ccc(CN4CC(O)C4)c23)ccc1Oc1ccn2ncnc2c1` [Example 12] gave a negative logarithm of the IC50 (pIC50) in the experiment on NCI-N87 cell (Homo sapiens, NCI-N87, 72 h) of 7.28.

In the case of `CCNC1CCN(Cc2ccn3ncnc(Nc4ccc(Oc5ccn6ncnc6c5)c(C)c4)c23)CC1` [Example 19], in the experiment on NCI-N87 cell (Homo sapiens, NCI-N87, 72 h), the negative logarithm of the IC50 (pIC50) is 7.64.

For `CO[C@H]1CN(Cc2ccn3ncnc(Nc4ccc(Oc5ccn6ncnc6c5)c(C)c4)c23)CC[C@@H]1N` [Example 25], the negative-log IC50 (pIC50) is 8.70 on HER2 (ErbB2), 6.68 on HER1 (ErbB1), 7.85 in the experiment with NCI-N87 cell and 6.43 against HER4 (ErbB4).

On to `Cc1cc(Nc2ncnn3ccc(CN4CCCNCC4)c23)ccc1Oc1ccn2ncnc2c1` [Example 5], for which the pIC50 is 7.80 against HER2 (ErbB2); < 6.00 at HER1 (ErbB1); 7.23 in the experiment on NCI-N87 cell (Homo sapiens, NCI-N87, 72 h); < 6.00 against HER4 (ErbB4); 7.01 in the experiment on BT-474 cell.

On to `Cc1cc(Nc2ncnn3ccc(CN4[C@@H]5CC[C@H]4C[C@H](O)C5)c23)ccc1Oc1ccn2ncnc2c1` [Example 6], for which the negative logarithm of the IC50 (pIC50) against HER2 (ErbB2) was 7.74; against HER1 (ErbB1), 6.13; in the experiment with NCI-N87 cell (Homo sapiens, NCI-N87, 72 h) it was 8.40; against HER4 (ErbB4), 6.82.

As a reminder, the T/C is the ratio of treated to control. For `NC1CCN(Cc2ccn3ncnc(Nc4ccc(Oc5ccn6ncnc6c5)c(Cl)c4F)c23)CC1` [Example 32], the pIC50 against HER2 (ErbB2) was 8.70; against HER1 (ErbB1), 6.55; with NCI-N87 cell (Homo sapiens, NCI-N87, 72 h), 7.96; against HER4 (ErbB4), 6.45; in the experiment on BT-474 cell, 7.06. In experiment [1] (day 20), the RTV was 0.61 ± 0.06. Also, in experiment [1] (day 20), the T/C worked out at 7.84%. Besides, in experiment [1] (day 20), the TGI came out at 106.44%. Also, the Tumor volume in experiment [1] (day 20 (head: Day 21), mean ± SEM) is 101 mm^3 and 101 ± 12 mm^3.

For the molecule `Cc1cc(Nc2ncnn3ccc(CN4CCNCC4)c23)ccc1Oc1ccn2ncnc2c1` [Example 1], the negative-log IC50 (pIC50) is 7.62 on HER2 (ErbB2), < 6.00 against HER1 (ErbB1) and < 6.00 at HER4 (ErbB4).
